Results from ChEMBL document CHEMBL1649101, “Desmethyl Macrolide Analogues to Address Antibiotic Resistance: Total Synthesis and Biological Evaluation of 4,8,10-Tridesmethyl Telithromycin” (2011).
Values after ≈ are worked out from the molar mass of the structure shown.

Tests used:
Assay type in all cases: functional
Escherichia coli [1] = assay: Antibacterial activity against Escherichia coli SQ171/2058G harboring ribosomal A2058G mutant
Escherichia coli [2] = assay: Antibacterial activity against wild type Escherichia coli DK/pKK3535
Escherichia coli [3] = assay: Antibacterial activity against Escherichia coli DK/2058G harboring ribosomal A2058G mutant
Staphylococcus aureus [4] = assay: Antibacterial activity against Staphylococcus aureus UCN14 harboring ribosomal […] mutant
Staphylococcus aureus [5] = assay: Antibacterial activity against Staphylococcus aureus ATCC 33591 harboring ermA mutant

| Compound | MIC (Escherichia coli [1]) [µg/mL] | MIC (Escherichia coli [2]) [µg/mL] | MIC (Escherichia coli [3]) [µg/mL] | MIC (Staphylococcus aureus [4]) [µg/mL] | MIC (Staphylococcus aureus [5]) [µg/mL] |
| --- | --- | --- | --- | --- | --- |
| CC[C@H]1OC(=O)[C@H](C)C(=O)[C@H](C)[C@@H](O[C@@H]2O[C@H](C)C[C@H](N(C)C)[C@H]2O)[C@](C)(OC)C[C@@H](C)C(=O)[C@H](C)[C@H]2N(CCCCn3cnc(-c4cccnc4)c3)C(=O)O[C@]12C [TELITHROMYCIN] | > 512 | 0.5 (≈ 0.616 µM) | 1 (≈ 1.23 µM) | > 256 | > 128 |
| CC[C@H]1OC(=O)[C@H](C)C(=O)C[C@@H](O[C@@H]2O[C@H](C)C[C@H](N(C)C)[C@H]2O)[C@@](C)(OC)CCC(=O)C[C@@H]2N(CCCCn3cnc(-c4cccnc4)c3)C(=O)O[C@@]21C |  | 32 (≈ 41.6 µM) |  |  |  |
